# In patent US8658661B2, “Oxadiazole inhibitors of leukotriene production” (Boehringer Ingelheim International GmbH, priority 2010, dated 2014):
# Legend:
# [1] = test system: synthesis of LTB4 in human whole blood; experiment: Human whole blood assay (inhibition of LTB4 synthesis, calcimycin stimulated); type: cell-based; settings: heparinized human whole blood, calcimycin 20 μM, plasma LTB4
# How it was run: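 Whole-blood cellular format, heparinized human donors: 15 min compound pretreatment, then 30 min calcimycin stimulation (20 μM final), both at 37° C. Low-speed centrifugation yields plasma, in which LTB4 is read by homogeneous time-resolved fluorescence immunoassay.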
# [2] = biological target: T1, recombinant human FLAP protein (Homo sapiens, UniProt P20292); experiment: FLAP binding assay (SPA, displacement of [125I]L-691,831); settings: membranes of sf9 cells expressing recombinant human FLAP; [125I]L-691,831 probe; read-out: FLAP binding IC50
# T1 construct: made in house; host or cells: Sf9 insect cells (100,000×g membrane pellet used)
# T1 sequence (P20292 1-161): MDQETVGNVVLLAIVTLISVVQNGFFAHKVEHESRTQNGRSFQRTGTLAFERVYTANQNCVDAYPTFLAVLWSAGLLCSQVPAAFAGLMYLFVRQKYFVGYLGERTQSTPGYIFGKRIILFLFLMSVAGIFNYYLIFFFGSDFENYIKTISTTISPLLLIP
# How it was run: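 Membranes from sf9 cells expressing human FLAP in pH 7.5 Tris buffer (MgCl2, EDTA, PMSF). Non-specific binding defined with 10 μM cold L-691,831.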
Compound,IC50 [1] [µM],IC50 [2] [µM]
"CC(C)C(C)(c1ccc(-c2cnc(N)nc2)cc1)c1noc(C2(C(=O)O)CC2)n1 (stereo not drawn) [Example 95, 1-(3-{2-[4-(2-aminopyrimidin-5-yl)phenyl]-3-methylbutan-2-yl}-1,2,4-oxadiazol-5-yl)cyclopropanecarboxylic acid]",> 5,0.13
"CC(C)(O)Cn1cc(-c2nc([C@@](C)(c3ccc(-c4cnc(N)cn4)cc3)C3CC3)no2)cn1 [Example 175, 1-[4-(3-{(R)-1-[4-(5-Amino-pyrazin-2-yl)-phenyl]-1-cyclopropyl-ethyl}-[1,2,4]oxadiazol-5-yl)-pyrazol-1-yl]-2-methyl-propan-2-ol]",0.039,0.0022
"CC(C)C(C)(c1ccc(-c2cnc(N)nc2)cc1)c1noc(-c2cccc(S(C)(=O)=O)c2)n1 (stereo not drawn) [Example 148, 5-[4-(3-methyl-2-{5-[3-(methylsulfonyl)phenyl]-1,2,4-oxadiazol-3-yl}butan-2-yl)phenyl]pyrimidin-2-amine]",0.61,0.014
"CNc1ccc(-c2ccc([C@](C)(c3noc(-c4cnn(CC(=O)N(C)C)c4)n3)C3CC3)cc2)cn1 [Example 280, 2-[4-(3-{(R)-1-Cyclopropyl-1-[4-(6-methylamino-pyridin-3-yl)-phenyl]-ethyl}-[1,2,4]oxadiazol-5-yl)-pyrazol-1-yl]-N,N-dimethyl-acetamide]",0.035,0.003
"CN(C)C(=O)Cn1cc(-c2nc(C(C)(c3ccc(-c4cnc5c(c4)CCN5)cc3)C3CC3)no2)cn1 (stereo not drawn) [Example 241, 2-[4-(3-{1-Cyclopropyl-1-[4-(2,3-dihydro-1H-pyrrolo[2,3-b]pyridin-5-yl)-phenyl]-ethyl}-[1,2,4]oxadiazol-5-yl)-pyrazol-1-yl]-N,N-dimethyl-acetamide]",0.17,0.0034
"Cc1nc(N)ncc1-c1ccc([C@](C)(c2noc(-c3cnn(CC(=O)N(C)C)c3)n2)C2CC2)cc1 [Example 257, 2-[4-(3-{(R)-1-[4-(2-Amino-4-methyl-pyrimidin-5-yl)-phenyl]-1-cyclopropyl-ethyl}-[1,2,4]oxadiazol-5-yl)-pyrazol-1-yl]-N,N-dimethyl-acetamide]",0.15,0.0073
"COCCn1cc(-c2nc([C@](C)(c3ccc(-c4cnc(N)nc4)cc3)C3CC3)no2)cn1 [Example 53, 5-{4-[(1S)-1-cyclopropyl-1-{5-[1-(2-methoxyethyl)-1H-pyrazol-4-yl]-1,2,4-oxadiazol-3-yl}ethyl]phenyl}pyrimidin-2-amine]",0.45,0.027
"CC(C)C(C)(c1ccc(-c2cnc(N)nc2)cc1)c1noc(-c2cnn(CC(C)(C)C(=O)O)c2)n1 (stereo not drawn) [Example 164, 3-[4-(3-{2-[4-(2-aminopyrimidin-5-yl)phenyl]-3-methylbutan-2-yl}-1,2,4-oxadiazol-5-yl)-1H-pyrazol-1-yl]-2,2-dimethylpropanoic acid]",2.7,0.0014
"CN(C)C(=O)Cn1cc(-c2nc([C@@](C)(c3ccc(-c4cnc(N)c(F)c4)cc3)C3CC3)no2)cn1 [Example 291, 2-[4-(3-{(R)-1-[4-(6-Amino-5-fluoro-pyridin-3-yl)-phenyl]-1-cyclopropyl-ethyl}-[1,2,4]oxadiazol-5-yl)-pyrazol-1-yl]-N,N-dimethyl-acetamide]",0.089,0.0045
"CC(c1ccc(-c2cnc(N)nc2)cc1)(c1noc(N2CC(O)C2)n1)C1CC1 (stereo not drawn) [Example 274, 1-(3-{1-[4-(2-Amino-pyrimidin-5-yl)-phenyl]-1-cyclopropyl-ethyl}-[1,2,4]oxadiazol-5-yl)-azetidin-3-ol]",0.2,0.04
"Cc1ncoc1-c1nc(C(C)(c2ccc(-c3cnc(N)nc3)cc2)C(C)C)no1 (stereo not drawn) [Example 140, 5-(4-{3-methyl-2-[5-(4-methyl-1,3-oxazol-5-yl)-1,2,4-oxadiazol-3-yl]butan-2-yl}phenyl)pyrimidin-2-amine]",0.71,0.0041
"Cc1cc(-c2ccc([C@](C)(c3noc(-c4cnn(CC(C)(C)O)c4)n3)C3CC3)cc2)cnc1N [Example 179, 1-[4-(3-{(R)-1-[4-(6-Amino-5-methyl-pyridin-3-yl)-phenyl]-1-cyclopropyl-ethyl}-[1,2,4]oxadiazol-5-yl)-pyrazol-1-yl]-2-methyl-propan-2-ol]",0.049,0.0046
"CNc1ncc(-c2ccc([C@](C)(c3noc(-c4cnn(CC(=O)N(C)C)c4)n3)C3CC3)cc2)cn1 [Example 226, 2-[4-(3-{(R)-1-Cyclopropyl-1-[4-(2-methylamino-pyrimidin-5-yl)-phenyl]-ethyl}-[1,2,4]oxadiazol-5-yl)-pyrazol-1-yl]-N,N-dimethyl-acetamide]",0.03,0.002
"CO[C@@H]1CCN(C(=O)Cn2cc(-c3nc([C@@](C)(c4ccc(-c5cnc(N)nc5)cc4)C4CC4)no3)cn2)C1 [Example 220, 2-[4-(3-{(R)-1-[4-(2-Amino-pyrimidin-5-yl)-phenyl]-1-cyclopropyl-ethyl}-[1,2,4]oxadiazol-5-yl)-pyrazol-1-yl]-1-((R)-3-methoxy-pyrrolidin-1-yl)-ethanone]",0.21,0.0085
"COCCNc1cnc(-c2nc(C(C)(c3ccc(-c4cnc(N)nc4)cc3)C(C)C)no2)cn1 (stereo not drawn) [Example 162, 5-{4-[2-(5-{5-[(2-methoxyethyl)amino]pyrazin-2-yl}-1,2,4-oxadiazol-3-yl)-3-methylbutan-2-yl]phenyl}pyrimidin-2-amine]",0.041,0.0023
"C[C@](c1ccc(-c2cnc(N)nc2)cc1)(c1noc(-c2cnn(C3COC3)c2)n1)C1CC1 [Example 55, 5-{4-[(1S)-1-cyclopropyl-1-{5-[1-(oxetan-3-yl)-1H-pyrazol-4-yl]-1,2,4-oxadiazol-3-yl}ethyl]phenyl}pyrimidin-2-amine]",0.2,0.011
"CCC(C)(c1ccc(-c2cnc(N)nc2)cc1)c1noc(-c2ccc(C)nc2)n1 (stereo not drawn) [Example 143, 5-(4-{2-[5-(6-methylpyridin-3-yl)-1,2,4-oxadiazol-3-yl]butan-2-yl}phenyl)pyrimidin-2-amine]",0.36,0.0041
"CC(O)CNc1ccc(-c2nc(C(C)(c3ccc(-c4cnc(N)nc4)cc3)C3CC3)no2)cn1 (stereo not drawn) [Example 40, 1-{[5-(3-{1-[4-(2-aminopyrimidin-5-yl)phenyl]-1-cyclopropylethyl}-1,2,4-oxadiazol-5-yl)pyridin-2-yl]amino}propan-2-ol]",0.1,0.0023
"CC(C)C(C)(c1ccc(-c2cnc(N)nc2)cc1)c1noc(CC(C)(C)O)n1 (stereo not drawn) [Example 225, 1-(3-{1-[4-(2-Amino-pyrimidin-5-yl)-phenyl]-1,2-dimethyl-propyl}-[1,2,4]oxadiazol-5-yl)-2-methyl-propan-2-ol]",0.35,0.016
"CC(C)C(C)(c1ccc(-c2cnc(N)c(CO)c2)cc1)c1noc(-c2cccnc2)n1 (stereo not drawn) [Example 6, [2-amino-5-(4-{3-methyl-2-[5-(pyridin-3-yl)-1,2,4-oxadiazol-3-yl]butan-2-yl}phenyl)pyridin-3-yl]methanol]",0.07,0.0011
"CC(C)[C@@](C)(c1ccc(-c2cnc(N)nc2)cc1)c1noc(-c2ccn(C)n2)n1 [Example 17, 5-(4-{(2S)-3-methyl-2-[5-(1-methyl-1H-pyrazol-3-yl)-1,2,4-oxadiazol-3-yl]butan-2-yl}phenyl)pyrimidin-2-amine]",0.51,0.024
"CC(C)C(C)(c1ccc(-c2cnc(N)nc2)cc1)c1noc(N2CCN(S(C)(=O)=O)CC2)n1 (stereo not drawn) [Example 170, 5-(4-{1-[5-(4-Methanesulfonyl-piperazin-1-yl)-[1,2,4]oxadiazol-3-yl]-1,2-dimethyl-propyl}-phenyl)-pyrimidin-2-ylamine]",0.31,0.014
"CC(C)(O)Cn1cc(-c2nc([C@@](C)(c3ccc(-c4ccc(N)nc4)cc3)C3CC3)no2)cn1 [Example 173, 1-[4-(3-{(R)-1-[4-(6-Amino-pyridin-3-yl)-phenyl]-1-cyclopropyl-ethyl}-[1,2,4]oxadiazol-5-yl)-pyrazol-1-yl]-2-methyl-propan-2-ol]",0.031,0.0024
"CC(c1ccc(-c2cnc(N)nc2)cc1)(c1noc(-c2ccc(NCCS(C)(=O)=O)nc2)n1)C1CC1 (stereo not drawn) [Example 41, 5-(4-{1-cyclopropyl-1-[5-(6-{[2-(methylsulfonyl)ethyl]amino}pyridin-3-yl)-1,2,4-oxadiazol-3-yl]ethyl}phenyl)pyrimidin-2-amine]",0.17,0.0022
"COCCn1cc(-c2nc([C@@](C)(c3ccc(-c4cnc(N)c(C)c4)cc3)C3CC3)no2)cn1 [Example 188, 5-[4-((R)-1-Cyclopropyl-1-{5-[1-(2-methoxy-ethyl)-1H-pyrazol-4-yl]-[1,2,4]oxadiazol-3-yl}-ethyl)-phenyl]-3-methyl-pyridin-2-ylamine]",0.051,0.048
"CC(C)C(C)(c1ccc(-c2cnc(N)nc2)cc1)c1noc(-c2cnn(C(C)(C)C(=O)O)c2)n1 (stereo not drawn) [Example 160, 2-[4-(3-{2-[4-(2-aminopyrimidin-5-yl)phenyl]-3-methylbutan-2-yl}-1,2,4-oxadiazol-5-yl)-1H-pyrazol-1-yl]-2-methylpropanoic acid]",> 5,0.009
"CN(C)C(=O)Cn1cc(-c2nc(C(C)(c3ccc(-c4cnc(N)c(C(F)(F)F)c4)cc3)C3CC3)no2)cn1 (stereo not drawn) [Example 246, 2-[4-(3-{1-[4-(6-Amino-5-trifluoromethyl-pyridin-3-yl)-phenyl]-1-cyclopropyl-ethyl}-[1,2,4]oxadiazol-5-yl)-pyrazol-1-yl]-N,N-dimethyl-acetamide]",0.43,0.019
